Measured values taken from patent US6632456B1, “Compositions for inhalation” (AstraZeneca AB, priority 1994, dated 2003).
Structures can show the parent of a compound that is named as a salt.

Columns and labels:
[1] = Enhancement of insulin uptake after powder inhalation in a rat model (blood glucose); format: in vivo, rats; settings: for Effect (decrease in blood glucose level): rats, inhaled powder; for enhancement of polypeptide (insulin) absorption in the lung: rat model of Example 2, substance tested as enhancer
Experimental: Each of the compounds listed in Table I was tested for its ability to enhance uptake of a polypeptide (insulin) in a rat model.
Various forms of insulin were employed in the different trials: recombinant human, semisynthetic human or bovine. Each formulation was prepared as above, drying and processing the insulin/enhancer or insulin/enhancer/lactose solution to produce an inhalable powder. The powder was administered to rats by inhalation, and the blood glucose levels of the rats were subsequently monitored as a measure of insulin uptake. These levels were compared to the corresponding values obtained from rats which had inhaled insulin formulations without enhancer.

[2] = tested on: CaCo-2 epithelial cell monolayer; assay: CaCo-2 epithelial cell monolayer transport assay; format: in vitro ADME; settings: for transport rate across the monolayer: CaCo-2, up to 16 mM sodium caprate
Experimental: A standard in vitro assay utilizing an epithelial cell line, CaCo-2 (available through the American Type Culture Collection (ATCC), Rockville, Md., USA), has been developed to assess the ability of various enhancer compounds to promote transport of markers across an epithelial cell monolayer, as a model for the epithelial cell layer which functions in the lung to separate the alveolus from the pulmonary blood supply.
In this assay, the enhancer and polypeptide or other marker are dissolved in aqueous solution at various proportions and/or concentrations, and applied to the apical side of the cell monolayer. After 60 min incubation at 37° C. and 95% RH (relative humidity), the amount of the marker on the basolateral side of the cells is determined, e.g., by use of a radioactively labelled marker.

[3] = set-up: species or system rats; settings: rat, in vivo
Experimental: The mixture was milled in a Retsch mechanical mill to a particle size of mass median diameter 6.7 μm. The resultant powder was administered intratraceally in rats and the uptake of hGH compared with that of a powder, MMD 9.6 μm, comprising hGH and mannitol in the same proportions and prepared in the same way as above.

[4] = Enhancer:Insulin:lactose 2:4:94, vs insulin without enhancer
[5] = Enhancer:Insulin:lactose 4:4:92, vs insulin without enhancer
[6] = Enhancer:Insulin:lactose 25:75:0, vs insulin without enhancer

Row | Molecule | enhancement of polypeptide (insulin) absorption in the lung [1] | Effect (decrease in blood glucose level) [1, 5] | further results
1 | CCCCCCCCCC(=O)OC[C@H](COP(=O)([O-])OCC[N+](C)(C)C)OC(=O)CCCCCCCCC [Didecanoylphospatidylcholine] |  |  | Effect (decrease in blood glucose level) ([1]; Enhancer:Insulin:lactose 4:4:94, vs insulin without enhancer): −
2 | CCCCCCCC(=O)OCC(COP(=O)([O-])OCC[N+](C)(C)C)OC(=O)CCCCCCC (centres unmarked) [Dioctanoylphosphatidylcholine] |  |  | Effect (decrease in blood glucose level) [1, 4]: (+)
3 | CCCCCCCCOC1O[C@H](CO)[C@@H](O)[C@H](O)[C@H]1O (some centres unmarked) [Octylglucopyranoside] | some absorption enhancing properties | (+) | 
4 | CCCCCCCCCC(=O)[O-].[K+] [Potassium caprate] | effective |  | Effect (decrease in blood glucose level) ([1]; Enhancer:Insulin:lactose 27:73:0, vs insulin without enhancer): +
5 | CCCCCCCC/C=C\CCCCCCCC(=O)[O-].[K+] [Potassium oleate] |  | + | 
6 | CCCCCCCCCC(=O)[O-].[Na+] [Sodium caprate] | perform well | + | Effect (decrease in blood glucose level) ([1]; Enhancer:Insulin:lactose 10:90:0, vs insulin without enhancer): (+); Effect (decrease in blood glucose level) ([1]; Enhancer:Insulin:lactose 17.5:82.5:0, vs insulin without enhancer): (+); Effect (decrease in blood glucose level) [1, 6]: +; amount of marker (mannitol) which appears on the basolateral side, insulin added ([2]; CaCo-2 monolayer, 1:3 sodium caprate:insulin by weight (FIG. 2)): This is true; amount of marker (mannitol) which appears on the basolateral side ([2]; CaCo-2 monolayer, 60 min, 37° C., up to 16 mM sodium caprate (FIG. 1)): dependent upon the concentration of enhancer used
7 | CCCCCCCC(=O)[O-].[Na+] [Sodium caprylate] |  |  | Effect (decrease in blood glucose level) [1, 6]: −
8 | C[C@H](CCC(=O)NCC(=O)[O-])[C@H]1CC[C@H]2[C@@H]3[C@H](O)C[C@@H]4C[C@H](O)CC[C@]4(C)[C@H]3C[C@H](O)[C@]12C.[Na+] [Sodium glycocholate] | effectively enhance polypeptide absorption in the lung | + | 
9 | CCCCCCCCCCCC(=O)[O-].[Na+] [Sodium laurate] | perform well |  | Effect (decrease in blood glucose level) [1, 6]: (+)
10 | CCCCCCCCCCCCCC(=O)[O-].[Na+] [Sodium myristate] | perform well |  | Effect (decrease in blood glucose level) ([1]; Enhancer:Insulin:lactose 30:70:0, vs insulin without enhancer): +
11 | C[C@H](CCC(=O)NCCS(=O)(=O)O)[C@H]1CC[C@H]2[C@@H]3[C@H](O)C[C@@H]4C[C@H](O)CC[C@]4(C)[C@H]3C[C@H](O)[C@]12C [Sodium taurocholate] | effectively enhance polypeptide absorption in the lung | + | 
12 | CC(=O)OC1CC2(C)C(CC(O)C3C4(C)CCC(O)C(C)C4CCC32C)C1=C(CCCC(C)C)C(=O)NCCS(=O)(=O)O (centres unmarked) [Sodium taurodihydrofusidate] | effectively enhance polypeptide absorption in the lung |  | Effect (decrease in blood glucose level) [1, 4]: +
13 | C[C@H](CCC(=O)[O-])[C@H]1CC[C@H]2[C@@H]3[C@@H](O)C[C@@H]4C[C@H](O)CC[C@]4(C)[C@H]3CC[C@]12C.[Na+] [Sodium ursodeoxycholate] | effectively enhance polypeptide absorption in the lung | + | 
14 | O=C(O)CN(CCN(CC(=O)O)CC(=O)O)CC(=O)O [sodium salt of ethylenediaminetetraacetic acid] | ineffective |  | 
15 | Dimethyl-β-cyclodextrin | absorption enhancing effect |  | Effect (decrease in blood glucose level) ([1]; Enhancer:Insulin:lactose 75:25:0, vs insulin without enhancer): +
16 | Lysine caprate | effective |  | Effect (decrease in blood glucose level) ([1]; Enhancer:Insulin:lactose 35:65:0, vs insulin without enhancer): +
17 | Lysophosphatidylcholine | effective enhancer | + | 
18 | albumin |  |  | transport rate across the monolayer [2]: no increase in transport rate
19 | carbonic anhydrase |  |  | transport rate across the monolayer [2]: no increase in transport rate
20 | cytochrome C |  |  | transport rate across the monolayer [2]: no increase in transport rate
21 | hGH: Human hormone (hGH, MW 22 kD, source Humatrope from Lilly), 3 parts mixed with sodium caprate (1 part), milled powder |  |  | uptake of hGH [3]: improvement in the uptake
